Consider seven molecules from patent US12473534B2, “Composition for culturing peripheral blood monocyte-derived regulatory t cell and regulatory T cell culturing method using same” (Immunisbio Co., Ltd., priority 2019, dated 2025).

Test [1] concerns regulatory T cells derived from peripheral blood mononuclear cells. As to the kind of experiment: Culturing of regulatory T cells from peripheral blood mononuclear cells with myricetin or superoxide dismutase, FACS analysis. In kind it is cell-based, human. Particulars: for CD4+, CD25+, CD127− (%): flow cytometry; for Total number of cells: start 2.0×10^7 cells, control 20.8. As for the experimental part:
30 mL to 60 mL of human peripheral blood was collected using a 10 mL heparinized vacuum blood collection tube (BD Vacutainer TM). Then, 15 mL of a solution of Ficoll-Paque Plus (endotoxin tested, density 1.077 g/mL, GE Healthcare, USA) was put into a 50 mL lymphocyte separation tube (Leucosep, Greiner Bio-One, Swiss), and the solution was allowed to precipitate down to a glass membrane in the tube by centrifugation at 2000 rpm. The collected blood was transferred to a separation tube and centrifuged at 2500 rpm to separate the erythrocytes and granulocyte layer at the bottom, and the mononuclear cell layer and platelets at the top, thereby separating the blood components. After centrifugation, the plasma in the separated upper layer was inactivated in a water bath at 56° C. for 30 minutes. After centrifugation, the separated lymphocyte layer was collected using a sterilized pipette and collected in a 15 mL tube. After the 15 mL tube with the collected lymphocytes were centrifuged, the supernatant was removed. Cells were washed by adding 10 mL of a buffer solution (PBS) to the lymphocytes from which the supernatant had been removed and suspending the cells. The number of cells was measured from some of the suspension using a hemocytometer, and only lymphocytes were collected by centrifuging again. In this case, the number of harvested lymphocytes was measured to be 20×10^6 cells in total, and the harvested lymphocytes were cultured according to Example 1 below. After the lymphocytes prepared in Experimental Example 1 were taken, the lymphocytes were cultured in a T-flask (SPL Life Sciences) containing a culture solution and 0.2 to 2 mL of plasma in a 5% CO2 incubator at 37° C. for 4 to 14 days. Furthermore, in order to induce a reaction with an activation receptor present on the cell surface of regulatory T cells, 0.001 to 0.03 of one or more antibodies selected from the group consisting of anti-CD2, anti-CD3, anti-CD7, anti-CD8, anti-CD28, anti-CD30L, anti-CD40, anti-CD70, anti-CD80, anti-CD83 and anti-CD86; one or more cytokines selected from the group consisting of interleukin-2, interleukin-4, interleukin-7, interleukin-12, interleukin-15, interleukin-34 and TGF-β; 0 to 250 μM of myricetin; and 0 to 50 μM of superoxide dismutase were administered. That is, lymphocytes measured to be a total number of 2.0×10^7 cells were added to 5 to 100 mL of KBM502 medium including the above-described plasma, antibodies, cytokines, myricetin and superoxide dismutase, and cultured in a CO2 incubator for 4 to 14 days. To confirm the differentiation of regulatory T cells, staining was performed with an anti-human antibody or mouse isotype antibody (BD-Pharmingen San Jose, USA) under a condition of CD4+, CD25+ and CD127−, which are surface proteins of regulatory T cells, measured by flow cytometry, and then analyzed using BD Accuri C6 Plus.
(In general: In flow cytometry, cells or beads pass a laser one at a time.)

Test [2] concerns regulatory T cells derived from peripheral blood mononuclear cells after removal of CD8+ cells. As to the kind of experiment: Culturing of regulatory T cells with myricetin and superoxide dismutase only or in combination after removal of CD8, FACS analysis. The test is classed as cell-based, human. The note with it: for Total number of cells: control 18.2. How it is done:
After the lymphocytes prepared in Experimental Example 1 were taken, the lymphocytes were cultured in a T-flask (SPL Life Sciences) containing a culture solution and 0.2 to 2 mL of plasma in a 5% CO2 incubator at 37° C. for 4 to 14 days. Furthermore, in order to induce a reaction with an activation receptor present on the cell surface of regulatory T cells, 0.001 to 0.03 of one or more antibodies selected from the group consisting of anti-CD2, anti-CD3, anti-CD7, anti-CD8, anti-CD28, anti-CD30L, anti-CD40, anti-CD70, anti-CD80, anti-CD83 and anti-CD86; one or more cytokines selected from the group consisting of interleukin-2, interleukin-4, interleukin-7, interleukin-12, interleukin-15, interleukin-34 and TGF-β; 0 to 250 μM of myricetin; and 0 to 50 μM of superoxide dismutase were administered. That is, lymphocytes measured to be a total number of 2.0×10^7 cells were added to 5 to 100 mL of KBM502 medium including the above-described plasma, antibodies, cytokines, myricetin and superoxide dismutase, and cultured in a CO2 incubator for 4 to 14 days. After peripheral blood mononuclear cells were separated, the cells were suspended in MACS buffer from Miltenyi Biotec and reacted with Human CD8 MicroBeads, and then CD8+ cells were removed using an LD column in a QuadroMACS Separator. Then, the cells were cultured using the same culturing method as in Example 1, and treated with myricetin and superoxide dismutase by selecting the treatment concentration having the highest regulatory T cell distribution in Example 1. To confirm the differentiation of regulatory T cells, staining was performed with an anti-human antibody or mouse isotype antibody (BD-Pharmingen San Jose, USA) under a condition of CD4+, CD25+ and CD127−, which are surface proteins of regulatory T cells, measured by flow cytometry, and then analyzed using BD Accuri C6 Plus.

The mark [3] stands for this setting: Day 0, after removal of CD8, flow cytometry.
[4] abbreviates: Day 7 of culture, after removal of CD8.
[5] abbreviates: Day 7 of culture, after removal of CD8, control 92.3.

Consider `O=c1c(O)c(-c2cc(O)c(O)c(O)c2)oc2cc(O)cc(O)c12` [M1, myricetin], for which the “CD4+, CD25+, CD127− (%)” value is given as 2.1% in test [1] (Day 0, before culture) and 22.4% in test [1] (Day 7 of culture, control 18.0). The “Total number of cells” value in test [1] (Day 7 of culture) was 26.8 ×10^7 cells.
Taken in the same sequence, the figures for `O=c1c(O)c(-c2cc(O)c(O)c(O)c2)oc2cc(O)cc(O)c12` [M2, myricetin] were 2.1%, 22.9% and 26.7 ×10^7 cells.
As for `O=c1c(O)c(-c2cc(O)c(O)c(O)c2)oc2cc(O)cc(O)c12` [M3, myricetin], the “CD4+, CD25+, CD127− (%)” value in test [1] (Day 0, before culture) is listed as 2.1%; in test [1] (Day 7 of culture, control 18.0), 24.7%; in test [2] (setting [3]) it was 0.4%; in test [2] (setting [5]) it was 97.6%. The figures for the “Total number of cells” value in test [1] (Day 7 of culture) and in test [2] (setting [4]) were 28.6 ×10^7 cells and 20.8 ×10^7 cells, respectively.
Turning to `O=c1c(O)c(-c2cc(O)c(O)c(O)c2)oc2cc(O)cc(O)c12` [M4, myricetin], the “CD4+, CD25+, CD127− (%)” value in test [1] (Day 0, before culture) amounted to 2.1%; in test [1] (Day 7 of culture, control 18.0), 23.3%. Also, the “Total number of cells” value in test [1] (Day 7 of culture) is 25.6 ×10^7 cells.
For the molecule superoxide dismutase [S1], the “CD4+, CD25+, CD127− (%)” value in test [1] (Day 0, before culture) is listed as 1.2%; in test [1] (Day 7 of culture, control 18.0), 37.4%; in test [2] (setting [3]) it was 0.7%; in test [2] (setting [5]), 97.6%. Also, the “Total number of cells” value is recorded as 22.5 ×10^7 cells in test [1] (Day 7 of culture) and 21.5 ×10^7 cells in test [2] (setting [4]).
Consider superoxide dismutase [S2], for which the “CD4+, CD25+, CD127− (%)” value in test [1] (Day 0, before culture) is listed as 1.2%; in test [1] (Day 7 of culture, control 18.0) it was 37.1%. Besides, in test [1] (Day 7 of culture), the “Total number of cells” value is listed as 25.2 ×10^7 cells.
Taken in the same sequence, the figures for superoxide dismutase [S3] were 1.2%, 36.0% and 24.4 ×10^7 cells.
